Measured values from ChEMBL document CHEMBL4507299, “Data for DCP probe PF-04554878” (2021).

Legend:
[1] = target: Interleukin-1 receptor-associated kinase 4 (Homo sapiens) (UniProt Q9NWZ3)
[2] = target: Serine/threonine-protein kinase Nek9 (Homo sapiens) (UniProt Q8TD19)
[3] = target: Ephrin type-B receptor 1 (Homo sapiens) (UniProt P54762)
[4] = target: Testis-specific serine/threonine-protein kinase 3 (Homo sapiens) (UniProt Q96PN8)
[5] = target: Mitogen-activated protein kinase 15 (Homo sapiens) (UniProt Q8TD08)
[6] = target: Serine/threonine-protein kinase Nek1 (Homo sapiens) (UniProt Q96PY6)
[7] = target: Serine/threonine-protein kinase 32C (Homo sapiens) (UniProt Q86UX6)
[8] = target: Serine/threonine-protein kinase TNNI3K (Homo sapiens) (UniProt Q59H18)
[9] = target: Phosphatidylinositol 4,5-bisphosphate 3-kinase catalytic subunit gamma isoform (Homo sapiens) (UniProt P48736)
[10] = target: Ribosomal protein S6 kinase alpha-6 (Homo sapiens) (UniProt Q9UK32)
[11] = target: Vascular endothelial growth factor receptor 3 (Homo sapiens) (UniProt P35916)
[12] = target: Mast/stem cell growth factor receptor Kit (Homo sapiens) (UniProt P10721)
[13] = target: Tyrosine-protein kinase Fyn (Homo sapiens) (UniProt P06241)
[14] = target: Dual specificity tyrosine-phosphorylation-regulated kinase 2 (Homo sapiens) (UniProt Q92630)
[15] = system: Phosphatidylinositol 4,5-bisphosphate 3-kinase catalytic subunit alpha isoform (Homo sapiens), P42336 [I800L]
[16] = system: Mast/stem cell growth factor receptor Kit (Homo sapiens), P10721 [A829P]
[17] = target: Cyclin-dependent kinase 17 (Homo sapiens) (UniProt Q00537)
Cyclin-dependent kinase 17 (Homo sapiens), sequence (Q00537 whole entry, looked up): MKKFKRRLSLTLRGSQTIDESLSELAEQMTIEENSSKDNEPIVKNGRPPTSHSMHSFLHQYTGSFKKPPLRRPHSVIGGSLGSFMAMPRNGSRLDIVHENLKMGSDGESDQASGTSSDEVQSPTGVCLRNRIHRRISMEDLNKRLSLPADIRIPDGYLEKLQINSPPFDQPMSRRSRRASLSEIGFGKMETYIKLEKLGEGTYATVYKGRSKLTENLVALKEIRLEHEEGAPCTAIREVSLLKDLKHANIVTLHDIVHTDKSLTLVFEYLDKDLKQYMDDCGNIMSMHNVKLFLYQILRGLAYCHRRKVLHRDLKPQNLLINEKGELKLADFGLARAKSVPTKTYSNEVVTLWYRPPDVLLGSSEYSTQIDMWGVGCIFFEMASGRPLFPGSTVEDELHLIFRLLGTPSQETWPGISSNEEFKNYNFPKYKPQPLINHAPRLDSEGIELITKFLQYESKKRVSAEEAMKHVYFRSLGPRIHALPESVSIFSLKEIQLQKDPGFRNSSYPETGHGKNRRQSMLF

[18] = target: Cyclin-G-associated kinase (Homo sapiens) (UniProt O14976)
[19] = target: Serine/threonine-protein kinase PAK 4 (Homo sapiens) (UniProt O96013)
[20] = target: Dual specificity mitogen-activated protein kinase kinase 5 (Homo sapiens) (UniProt Q13163)
[21] = target: Serine/threonine-protein kinase VRK2 (Homo sapiens) (UniProt Q86Y07)
[22] = target: Bone morphogenetic protein receptor type-2 (Homo sapiens) (UniProt Q13873)
Bone morphogenetic protein receptor type-2 (Homo sapiens), sequence (Q13873 whole entry): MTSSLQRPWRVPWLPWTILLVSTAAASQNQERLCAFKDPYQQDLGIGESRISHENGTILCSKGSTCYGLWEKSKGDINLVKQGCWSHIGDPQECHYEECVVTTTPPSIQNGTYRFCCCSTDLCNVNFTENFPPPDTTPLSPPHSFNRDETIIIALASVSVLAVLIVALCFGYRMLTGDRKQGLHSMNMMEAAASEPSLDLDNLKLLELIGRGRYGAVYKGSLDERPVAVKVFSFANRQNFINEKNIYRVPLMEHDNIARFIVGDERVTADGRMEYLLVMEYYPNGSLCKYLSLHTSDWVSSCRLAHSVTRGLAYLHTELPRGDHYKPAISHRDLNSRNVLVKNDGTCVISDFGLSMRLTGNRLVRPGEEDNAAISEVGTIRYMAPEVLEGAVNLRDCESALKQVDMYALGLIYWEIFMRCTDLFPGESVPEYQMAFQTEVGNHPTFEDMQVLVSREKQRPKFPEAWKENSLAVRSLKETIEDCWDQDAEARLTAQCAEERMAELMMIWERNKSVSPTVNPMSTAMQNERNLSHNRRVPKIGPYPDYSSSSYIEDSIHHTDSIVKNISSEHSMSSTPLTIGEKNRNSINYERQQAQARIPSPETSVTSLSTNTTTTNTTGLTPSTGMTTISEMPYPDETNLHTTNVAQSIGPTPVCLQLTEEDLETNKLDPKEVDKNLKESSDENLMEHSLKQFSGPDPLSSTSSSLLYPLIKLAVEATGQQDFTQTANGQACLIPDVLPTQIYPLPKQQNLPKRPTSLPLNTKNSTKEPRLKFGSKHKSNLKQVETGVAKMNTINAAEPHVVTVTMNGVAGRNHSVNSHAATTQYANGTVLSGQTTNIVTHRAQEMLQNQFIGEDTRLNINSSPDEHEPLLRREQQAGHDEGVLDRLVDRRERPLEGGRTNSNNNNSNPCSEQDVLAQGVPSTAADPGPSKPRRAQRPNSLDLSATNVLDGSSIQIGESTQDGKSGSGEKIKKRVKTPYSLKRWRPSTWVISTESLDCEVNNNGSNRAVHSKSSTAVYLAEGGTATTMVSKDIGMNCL

[23] = target: Serine/threonine-protein kinase ICK (Homo sapiens) (UniProt Q9UPZ9)
[24] = target: Serine/threonine-protein kinase Nek5 (Homo sapiens) (UniProt Q6P3R8)
[25] = target: Serine/threonine-protein kinase 32A (Homo sapiens) (UniProt Q8WU08)
[26] = system: Proto-oncogene tyrosine-protein kinase receptor Ret (Homo sapiens), P07949 [M918T]
[27] = target: cGMP-dependent protein kinase 1 (Homo sapiens) (UniProt Q13976)
[28] = target: BMP-2-inducible protein kinase (Homo sapiens) (UniProt Q9NSY1)
[29] = target: Ribosomal protein S6 kinase alpha-4 (Homo sapiens) (UniProt O75676)
[30] = target: Mitogen-activated protein kinase kinase kinase 2 (Homo sapiens) (UniProt Q9Y2U5)
[31] = target: Serine/threonine-protein kinase PLK4 (Homo sapiens) (UniProt O00444)
Serine/threonine-protein kinase PLK4 (Homo sapiens), sequence (O00444 whole entry): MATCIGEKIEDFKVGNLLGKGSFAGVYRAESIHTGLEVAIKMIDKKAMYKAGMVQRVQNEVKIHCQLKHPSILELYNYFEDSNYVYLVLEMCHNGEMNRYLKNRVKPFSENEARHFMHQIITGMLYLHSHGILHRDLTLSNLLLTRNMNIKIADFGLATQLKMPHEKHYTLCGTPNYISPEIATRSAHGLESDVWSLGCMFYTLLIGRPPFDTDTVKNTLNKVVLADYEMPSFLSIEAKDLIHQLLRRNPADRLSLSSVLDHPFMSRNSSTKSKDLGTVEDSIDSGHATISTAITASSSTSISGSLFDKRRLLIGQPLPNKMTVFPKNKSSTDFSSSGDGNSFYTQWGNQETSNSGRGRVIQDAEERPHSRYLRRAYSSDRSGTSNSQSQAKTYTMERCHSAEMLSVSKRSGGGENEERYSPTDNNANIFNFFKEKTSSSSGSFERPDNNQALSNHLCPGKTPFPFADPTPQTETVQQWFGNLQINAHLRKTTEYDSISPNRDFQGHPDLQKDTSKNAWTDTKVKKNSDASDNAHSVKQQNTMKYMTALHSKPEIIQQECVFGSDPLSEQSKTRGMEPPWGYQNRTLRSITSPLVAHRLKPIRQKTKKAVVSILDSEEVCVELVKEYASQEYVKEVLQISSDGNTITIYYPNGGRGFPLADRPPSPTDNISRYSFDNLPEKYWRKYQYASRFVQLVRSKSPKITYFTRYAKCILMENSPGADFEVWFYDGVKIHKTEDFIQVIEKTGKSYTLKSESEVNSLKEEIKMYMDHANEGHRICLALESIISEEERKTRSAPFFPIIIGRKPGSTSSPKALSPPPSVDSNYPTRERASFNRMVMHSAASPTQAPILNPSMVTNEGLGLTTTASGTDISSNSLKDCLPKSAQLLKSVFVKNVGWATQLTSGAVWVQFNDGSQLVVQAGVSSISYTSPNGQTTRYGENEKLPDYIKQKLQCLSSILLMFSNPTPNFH

[32] = target: Cyclin-dependent kinase 11A (Homo sapiens) (UniProt Q9UQ88)
[33] = target: Tyrosine-protein kinase FRK (Homo sapiens) (UniProt P42685)
[34] = target: Beta-adrenergic receptor kinase 1 (Homo sapiens) (UniProt P25098)
Beta-adrenergic receptor kinase 1 (Homo sapiens), sequence (P25098 whole entry): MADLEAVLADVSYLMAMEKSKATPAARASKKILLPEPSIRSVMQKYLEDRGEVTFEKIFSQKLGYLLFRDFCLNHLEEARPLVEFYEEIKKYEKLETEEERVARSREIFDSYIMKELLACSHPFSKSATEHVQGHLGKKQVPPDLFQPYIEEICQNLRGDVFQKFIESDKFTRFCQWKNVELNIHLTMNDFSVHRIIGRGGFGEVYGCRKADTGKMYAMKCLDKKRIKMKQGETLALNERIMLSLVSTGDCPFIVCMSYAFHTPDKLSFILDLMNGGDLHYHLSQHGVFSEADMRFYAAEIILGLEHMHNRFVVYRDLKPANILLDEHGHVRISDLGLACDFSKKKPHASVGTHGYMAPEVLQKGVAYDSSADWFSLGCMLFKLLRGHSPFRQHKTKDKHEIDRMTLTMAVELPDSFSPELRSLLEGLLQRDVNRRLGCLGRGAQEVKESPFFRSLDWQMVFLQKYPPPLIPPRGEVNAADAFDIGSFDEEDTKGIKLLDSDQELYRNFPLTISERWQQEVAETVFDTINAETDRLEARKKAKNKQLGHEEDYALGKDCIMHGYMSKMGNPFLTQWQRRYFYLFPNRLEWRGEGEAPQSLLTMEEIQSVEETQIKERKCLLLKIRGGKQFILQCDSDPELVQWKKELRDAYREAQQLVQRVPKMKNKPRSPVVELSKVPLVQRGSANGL

[35] = target: Tyrosine-protein kinase Tec (Homo sapiens) (UniProt P42680)
[36] = target: Serine/threonine-protein kinase STK11 (Homo sapiens) (UniProt Q15831)
Serine/threonine-protein kinase STK11 (Homo sapiens), sequence (Q15831 whole entry): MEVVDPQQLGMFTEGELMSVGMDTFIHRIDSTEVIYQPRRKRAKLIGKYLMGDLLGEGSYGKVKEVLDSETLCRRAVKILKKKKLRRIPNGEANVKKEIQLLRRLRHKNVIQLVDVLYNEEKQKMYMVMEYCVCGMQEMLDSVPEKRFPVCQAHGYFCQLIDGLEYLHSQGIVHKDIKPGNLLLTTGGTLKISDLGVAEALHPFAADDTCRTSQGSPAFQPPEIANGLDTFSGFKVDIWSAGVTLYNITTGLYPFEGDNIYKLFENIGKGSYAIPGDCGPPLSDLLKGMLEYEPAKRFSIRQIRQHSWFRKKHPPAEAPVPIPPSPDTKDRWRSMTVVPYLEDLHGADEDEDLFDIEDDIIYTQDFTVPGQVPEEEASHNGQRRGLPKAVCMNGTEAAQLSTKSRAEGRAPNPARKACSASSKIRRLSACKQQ

[37] = target: Insulin receptor (Homo sapiens) (UniProt P06213)
[38] = system: Epidermal growth factor receptor (Homo sapiens), P00533 [G719S]
[39] = target: Dual specificity protein kinase CLK4 (Homo sapiens) (UniProt Q9HAZ1)
Dual specificity protein kinase CLK4 (Homo sapiens), sequence (Q9HAZ1 whole entry, looked up): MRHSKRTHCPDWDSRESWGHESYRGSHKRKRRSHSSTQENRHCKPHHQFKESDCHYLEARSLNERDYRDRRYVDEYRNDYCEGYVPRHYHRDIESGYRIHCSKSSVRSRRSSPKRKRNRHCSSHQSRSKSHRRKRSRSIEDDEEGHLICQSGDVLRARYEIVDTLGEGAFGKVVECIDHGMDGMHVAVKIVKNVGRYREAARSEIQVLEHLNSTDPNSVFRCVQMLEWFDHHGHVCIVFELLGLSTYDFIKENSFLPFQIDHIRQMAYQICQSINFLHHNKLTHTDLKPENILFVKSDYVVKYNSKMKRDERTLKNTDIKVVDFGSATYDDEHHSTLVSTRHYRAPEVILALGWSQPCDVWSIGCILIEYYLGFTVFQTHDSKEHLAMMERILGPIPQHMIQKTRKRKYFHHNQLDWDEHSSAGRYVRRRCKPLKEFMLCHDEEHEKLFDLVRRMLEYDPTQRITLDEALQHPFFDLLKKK

[40] = target: Tyrosine-protein kinase Srms (Homo sapiens) (UniProt Q9H3Y6)
[41] = target: Beta-3 adrenergic receptor (Homo sapiens) (UniProt P13945); conditions: Compound concentration 10.0 uM
[42] = target: Casein kinase I isoform alpha-like (Homo sapiens) (UniProt Q8N752)
[43] = target: Serine/threonine-protein kinase MAK (Homo sapiens) (UniProt P20794)
Serine/threonine-protein kinase MAK (Homo sapiens), sequence (P20794 whole entry): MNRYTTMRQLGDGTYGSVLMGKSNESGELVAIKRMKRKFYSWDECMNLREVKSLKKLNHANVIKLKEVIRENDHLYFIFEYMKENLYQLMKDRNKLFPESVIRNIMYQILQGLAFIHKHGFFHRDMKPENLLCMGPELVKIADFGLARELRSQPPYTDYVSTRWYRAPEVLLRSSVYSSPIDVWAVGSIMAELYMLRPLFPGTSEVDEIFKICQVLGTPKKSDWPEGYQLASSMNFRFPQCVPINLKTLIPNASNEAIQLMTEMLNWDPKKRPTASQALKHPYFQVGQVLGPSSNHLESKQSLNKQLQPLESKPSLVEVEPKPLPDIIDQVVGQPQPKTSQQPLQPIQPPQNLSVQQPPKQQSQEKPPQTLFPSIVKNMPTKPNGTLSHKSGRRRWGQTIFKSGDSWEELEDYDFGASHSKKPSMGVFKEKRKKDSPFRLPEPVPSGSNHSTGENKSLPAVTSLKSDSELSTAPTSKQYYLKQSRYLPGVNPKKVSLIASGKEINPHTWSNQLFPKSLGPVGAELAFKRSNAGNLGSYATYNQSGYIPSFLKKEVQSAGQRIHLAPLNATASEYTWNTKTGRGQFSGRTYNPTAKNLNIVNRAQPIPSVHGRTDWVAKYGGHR

[44] = target: Muscarinic acetylcholine receptor M1 (Homo sapiens) (UniProt P11229); conditions: Compound concentration 10.0 uM
[45] = target: Maternal embryonic leucine zipper kinase (Homo sapiens) (UniProt Q14680)
[46] = Compound concentration 100.0 nM
[47] = Compound concentration 1000.0 nM

Testis-specific serine/threonine-protein kinase 3 (Homo sapiens), sequence (Q96PN8 whole entry): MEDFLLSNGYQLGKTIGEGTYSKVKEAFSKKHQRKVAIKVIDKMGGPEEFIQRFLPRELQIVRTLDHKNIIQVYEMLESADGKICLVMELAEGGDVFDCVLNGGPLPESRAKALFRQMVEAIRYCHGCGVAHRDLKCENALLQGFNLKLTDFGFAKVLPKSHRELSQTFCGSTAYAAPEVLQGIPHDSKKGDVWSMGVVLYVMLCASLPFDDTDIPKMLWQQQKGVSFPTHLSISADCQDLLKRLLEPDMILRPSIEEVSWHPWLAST

Question: For `CNC(=O)c1ccc(Nc2ncc(C(F)(F)F)c(NCc3nccnc3N(C)S(C)(=O)=O)n2)cc1` [DEFACTINIB], which residual activity [1, 46] is on record?
Answer: 92%

Question: And the residual activity [2, 46]?
Answer: 80%

Question: And the residual activity [3, 46]?
Answer: 87%

Question: What about the residual activity [4, 46] of the same compound?
Answer: 77%

Question: And the residual activity [5, 46]?
Answer: 40%

Question: What about the residual activity [6, 46] of the same compound?
Answer: 75%

Question: What about the residual activity [7, 46] of the same compound?
Answer: 100%

Question: What about the residual activity [8, 46] of the same compound?
Answer: 100%

Question: And the residual activity [9, 46]?
Answer: 100%

Question: And the residual activity [10, 46]?
Answer: 49%

Question: What about the residual activity [11, 46] of the same compound?
Answer: 39%

Question: And the residual activity [12, 46]?
Answer: 100%

Question: And the residual activity [13, 46]?
Answer: 100%

Question: What about the residual activity [14, 46] of the same compound?
Answer: 76%

Question: What about the residual activity [15, 46] of the same compound?
Answer: 100%

Question: What about the residual activity [16, 46] of the same compound?
Answer: 85%

Question: What about the residual activity [17, 46] of the same compound?
Answer: 88%

Question: What about the residual activity [18, 46] of the same compound?
Answer: 69%

Question: And the residual activity [19, 46]?
Answer: 58%

Question: What about the residual activity [20, 46] of the same compound?
Answer: 89%

Question: What about the residual activity [21, 46] of the same compound?
Answer: 85%

Question: And the residual activity [22, 46]?
Answer: 91%

Question: And the residual activity [23, 46]?
Answer: 68%

Question: What about the residual activity [24, 46] of the same compound?
Answer: 100%

Question: What about the residual activity [25, 46] of the same compound?
Answer: 71%

Question: What about the residual activity [26, 46] of the same compound?
Answer: 72%

Question: And the residual activity [27, 46]?
Answer: 100%

Question: And the residual activity [28, 46]?
Answer: 81%

Question: What about the residual activity [29, 46] of the same compound?
Answer: 57%

Question: What about the residual activity [30, 46] of the same compound?
Answer: 65%

Question: What about the residual activity [31, 46] of the same compound?
Answer: 79%

Question: And the residual activity [32, 46]?
Answer: 77%

Question: What about the residual activity [33, 46] of the same compound?
Answer: 100%

Question: What about the residual activity [34, 46] of the same compound?
Answer: 89%

Question: And the residual activity [35, 46]?
Answer: 100%

Question: And the residual activity [36, 46]?
Answer: 100%

Question: And the residual activity [37, 46]?
Answer: 91%

Question: What about the residual activity [38, 46] of the same compound?
Answer: 92%

Question: What about the residual activity [39, 46] of the same compound?
Answer: 25%

Question: What about the residual activity [40, 46] of the same compound?
Answer: 96%

Question: What about the inhibition [41] of the same compound?
Answer: 4.63%

Question: And the residual activity [42, 46]?
Answer: 77%

Question: And the residual activity [43, 46]?
Answer: 85%

Question: And the inhibition [44]?
Answer: 19.3%

Question: And the residual activity [45, 46]?
Answer: 23%

Question: How did the residual activity [1, 47] turn out when `CN(c1ccnc(CNc2nc(Nc3ccc4c(c3)CC(=O)N4)ncc2C(F)(F)F)n1)S(C)(=O)=O` [PF-00911705] was run?
Answer: 50%

Question: And the residual activity [2, 47]?
Answer: 63%

Question: What about the residual activity [3, 47] of the same compound?
Answer: 99%

Question: And the residual activity [4, 47]?
Answer: 80%

Question: And the residual activity [5, 47]?
Answer: 4.8%

Question: And the residual activity [6, 47]?
Answer: 51%

Question: And the residual activity [7, 47]?
Answer: 76%

Question: What about the residual activity [8, 47] of the same compound?
Answer: 73%

Question: And the residual activity [9, 47]?
Answer: 100%

Question: And the residual activity [10, 47]?
Answer: 79%

Question: What about the residual activity [11, 47] of the same compound?
Answer: 92%

Question: And the residual activity [12, 47]?
Answer: 52%

Question: And the residual activity [13, 47]?
Answer: 59%

Question: And the residual activity [14, 47]?
Answer: 37%

Question: What about the residual activity [15, 47] of the same compound?
Answer: 84%

Question: And the residual activity [16, 47]?
Answer: 46%

Question: And the residual activity [17, 47]?
Answer: 85%

Question: What about the residual activity [18, 47] of the same compound?
Answer: 66%

Question: What about the residual activity [19, 47] of the same compound?
Answer: 52%

Question: And the residual activity [20, 47]?
Answer: 48%

Question: And the residual activity [21, 47]?
Answer: 78%

Question: What about the residual activity [22, 47] of the same compound?
Answer: 60%

Question: What about the residual activity [23, 47] of the same compound?
Answer: 100%

Question: And the residual activity [24, 47]?
Answer: 63%

Question: What about the residual activity [25, 47] of the same compound?
Answer: 72%

Question: And the residual activity [26, 47]?
Answer: 50%

Question: What about the residual activity [27, 47] of the same compound?
Answer: 100%

Question: And the residual activity [28, 47]?
Answer: 2.3%

Question: What about the residual activity [29, 47] of the same compound?
Answer: 72%

Question: What about the residual activity [30, 47] of the same compound?
Answer: 9.7%

Question: What about the residual activity [31, 47] of the same compound?
Answer: 50%

Question: What about the residual activity [32, 47] of the same compound?
Answer: 94%

Question: And the residual activity [33, 47]?
Answer: 93%

Question: And the residual activity [34, 47]?
Answer: 31%

Question: What about the residual activity [35, 47] of the same compound?
Answer: 100%

Question: And the residual activity [36, 47]?
Answer: 72%

Question: And the residual activity [37, 47]?
Answer: 100%

Question: What about the residual activity [38, 47] of the same compound?
Answer: 89%

Question: What about the residual activity [39, 47] of the same compound?
Answer: 1.4%

Question: And the residual activity [40, 47]?
Answer: 62%

Question: And the inhibition [41]?
Answer: 1.64%

Question: What about the residual activity [42, 47] of the same compound?
Answer: 81%

Question: What about the residual activity [43, 47] of the same compound?
Answer: 100%

Question: What about the inhibition [44] of the same compound?
Answer: -6.58%

Question: And the residual activity [45, 47]?
Answer: 40%
